{"source": "patent US10632147B2", "about": "“Methods and compositions for treating inflammatory disorders” (priority 2007, dated 2020)", "key": {"[1]": {"system": "Staphylococcus epidermidis ATCC #14990", "test": "Microbial Time Kill Assay", "assay_type": "cell-based", "conditions": "150 ppm AFC, 15 second contact time"}, "[2]": {"system": "Haemophilus influenza ATCC #8149", "test": "Microbial Time Kill Assay", "assay_type": "cell-based", "conditions": "150 ppm AFC, 15 second contact time"}, "[3]": {"system": "Bacteroides fragilis ATCC #25285", "test": "Microbial Time Kill Assay", "assay_type": "cell-based", "conditions": "150 ppm AFC, 15 second contact time"}, "[4]": {"system": "Klebsiella oxytoca ATCC #12833", "test": "Microbial Time Kill Assay", "assay_type": "cell-based", "conditions": "150 ppm AFC, 15 second contact time"}, "[5]": {"test": "Ocular irritation study (Draize)", "assay_type": "in vivo, New Zealand white rabbits", "conditions": "0.1 ml, 689.5 ppm AFC, conjunctival sac; Draize scoring days 1, 2 and 3 post dose", "procedure": "An eye irritation study was conducted on six healthy New Zealand white rabbits, free from evidence of ocular irritation and corneal abnormalities. The test article (0.1 ml hypochlorous acid, 689.5 ppm AFC) was placed into the conjunctival sac of one eye of each rabbit. The contralateral eye served as a control. The eyes were examined and scored by the Draize technique for any evidence of irritation or abnormalities of the cornea, on days 1, 2, and 3 post dose. The primary eye irritation score of each rabbit, each day was calculated. All eyes appeared normal at each observation period and there were no abnormal physical signs noted."}, "[6]": {"system": "Proteus mirabilis ATCC #43071", "test": "Microbial Time Kill Assay", "assay_type": "cell-based", "conditions": "150 ppm AFC, 15 second contact time"}, "[7]": {"system": "Escherichia coli ATCC #8739", "test": "Microbial Time Kill Assay", "assay_type": "cell-based", "conditions": "150 ppm AFC, 15 second contact time"}, "[8]": {"test": "Acute oral toxicity", "conditions": "500 ppm AFC, single dose of 5 g/kg orally, observed up to 14 days"}, "[9]": {"system": "Enterococcus faecium (VRE)", "test": "Carrier test", "assay_type": "cell-based", "conditions": "<180 ppm, glass slide carriers"}, "[10]": {"system": "Streptococcus pyogenes ATCC #19615", "test": "Microbial Time Kill Assay", "assay_type": "cell-based", "conditions": "150 ppm AFC, 15 second contact time"}, "[11]": {"system": "human norovirus", "test": "Norovirus suspension test", "assay_type": "cell-based", "conditions": "20-200 mg/L, within a contact time of 20 seconds"}, "[12]": {"system": "Klebsiella pneumonia ATCC #4352", "test": "Microbial Time Kill Assay", "assay_type": "cell-based", "conditions": "150 ppm AFC, 15 second contact time"}, "[13]": {"system": "Staphylococcus aureus (MRSA) ATCC #33591", "test": "Microbial Time Kill Assay", "assay_type": "cell-based", "conditions": "150 ppm AFC, 15 second contact time"}, "[14]": {"system": "Bacillus cereus CIP 7 803", "test": "Sporicidal suspension test", "assay_type": "cell-based"}, "[15]": {"test": "Delayed dermal sensitization in guinea pig maximization test", "assay_type": "in vivo", "conditions": "intradermal injection and occlusive patch; scored 24 and 48 hours after patch removal; solution 690 ppm AFC, hydrogel 500 ppm AFC"}, "[16]": {"system": "Acinetobacter baumannii ATCC #19606", "test": "Microbial Time Kill Assay", "assay_type": "cell-based", "conditions": "150 ppm AFC, 15 second contact time"}, "[17]": {"system": "coliphage MS2", "test": "MS2 coliphage suspension test", "assay_type": "cell-based", "conditions": "20-200 mg/L, within a contact time of 20 seconds"}, "[18]": {"system": "Clostridium difficile (spores)", "test": "Endospore Time Kill Assay", "assay_type": "cell-based", "conditions": "for Log Reduction / Vashe Log10 / Vashe Survivors / % Reduction (% Kill): ≤150 ppm AFC"}, "[19]": {"test": "Dermal irritation study (Draize)", "assay_type": "in vivo, New Zealand white rabbits", "conditions": "0.5 ml, 689.5 ppm AFC, intact and abraded site; Draize at 24 and 72 hours", "procedure": "A skin irritation study was conducted on six healthy New Zealand white rabbits. The test article (0.5 ml hypochlorous acid, 689.5 ppm AFC) was applied to one intact and one abraded site on the clipped back of each rabbit. Skin reactions were evaluated by the Draize technique at 24 and 72 hours after dosing and the primary irritation index was calculated. There was no erythema or edema noted at any time period and there were no abnormal physical signs noted during the observation period."}, "[20]": {"system": "Salmonella choleraesuis", "test": "Carrier test", "assay_type": "cell-based", "conditions": "<180 ppm, glass slide carriers"}, "[21]": {"system": "Aspergillus niger ATCC 16404", "test": "Fungicidal suspension test", "assay_type": "cell-based", "procedure": "(§1) Fungicidal activity tests were performed using hypochlorous acid (140-150 ppm) against Candida albicans ATCC 10231 and Aspergillus niger ATCC 16404. Stock culture of Candida albicans ATCC 10231 and Aspergillus niger ATCC 16404 were grown and maintained on Malt Extract Agar at 30° C. […] All samples were serially diluted, plated out on Tryptic Soy Agar, incubated at 37° C. for 3 days and colonies forming units counted."}, "[22]": {"system": "Candida albicans ATCC 10231", "test": "Fungicidal suspension test", "assay_type": "cell-based", "procedure": "as §1"}, "[23]": {"system": "Staphylococcus aureus ATCC #6538", "test": "Microbial Time Kill Assay", "assay_type": "cell-based", "conditions": "150 ppm AFC, 15 second contact time"}, "[24]": {"conditions": "hypochlorous acid 40-180 ppm, suspension test"}}, "data": [{"smiles": "OCl", "note": "[hypochlorous acid]", "values": [{"measurement": "% Reduction (% Kill)", "setting": "[1]", "value": ">99.999", "unit": "%"}, {"measurement": "HOCl Solution Log10", "setting": "[1]", "value": "≤1"}, {"measurement": "HOCl Solution Survivors", "setting": "[1]", "value": "<10"}, {"measurement": "% Reduction (% Kill)", "setting": "[2]", "value": ">99.999", "unit": "%"}, {"measurement": "HOCl Solution Log10", "setting": "[2]", "value": "≤1"}, {"measurement": "HOCl Solution Survivors", "setting": "[2]", "value": "<10"}, {"measurement": "Log Reduction", "setting": "[2]", "value": "≥5.59"}, {"measurement": "% Reduction (% Kill)", "setting": "[3]", "value": ">99.999", "unit": "%"}, {"measurement": "HOCl Solution Log10", "setting": "[3]", "value": "≤1"}, {"measurement": "HOCl Solution Survivors", "setting": "[3]", "value": "<10"}, {"measurement": "Log Reduction", "setting": "[3]", "value": "≥5.66"}, {"measurement": "% Reduction (% Kill)", "setting": "[4]", "value": ">99.999", "unit": "%"}, {"measurement": "HOCl Solution Log10", "setting": "[4]", "value": "≤1"}, {"measurement": "HOCl Solution Survivors", "setting": "[4]", "value": "<10"}, {"measurement": "Log Reduction", "setting": "[4]", "value": "≥5.18"}, {"measurement": "ocular irritation", "setting": "[5]", "value": "no ocular irritation"}, {"measurement": "% Reduction (% Kill)", "setting": "[6]", "value": ">99.999", "unit": "%"}, {"measurement": "HOCl Solution Log10", "setting": "[6]", "value": "≤1"}, {"measurement": "HOCl Solution Survivors", "setting": "[6]", "value": "<10"}, {"measurement": "Log Reduction", "setting": "[6]", "value": "≥5.40"}, {"measurement": "% Reduction (% Kill)", "setting": "[7]", "value": ">99.999", "unit": "%"}, {"measurement": "HOCl Solution Log10", "setting": "[7]", "value": "≤1"}, {"measurement": "HOCl Solution Survivors", "setting": "[7]", "value": "<10"}, {"measurement": "Log Reduction", "setting": "[7]", "value": "≥5.28"}, {"measurement": "mortality or evidence of toxicity", "setting": "[8]", "value": "no mortality or evidence of toxicity"}, {"measurement": "Time to achieve pass", "setting": "[9]", "value": 5, "unit": "min"}, {"measurement": "% Reduction (% Kill)", "setting": "[10]", "value": ">99.999", "unit": "%"}, {"measurement": "HOCl Solution Log10", "setting": "[10]", "value": "≤1"}, {"measurement": "HOCl Solution Survivors", "setting": "[10]", "value": "<10"}, {"measurement": "Log Reduction", "setting": "[10]", "value": "≥5.53"}, {"measurement": "reduction of human norovirus", "setting": "[11]", "value": 3, "unit": "log10"}, {"measurement": "% Reduction (% Kill)", "setting": "[12]", "value": ">99.999", "unit": "%"}, {"measurement": "HOCl Solution Log10", "setting": "[12]", "value": "≤1"}, {"measurement": "HOCl Solution Survivors", "setting": "[12]", "value": "<10"}, {"measurement": "Log Reduction", "setting": "[12]", "value": "≥5.70"}, {"measurement": "% Reduction (% Kill)", "setting": "[13]", "value": ">99.999", "unit": "%"}, {"measurement": "HOCl Solution Log10", "setting": "[13]", "value": "≤1"}, {"measurement": "HOCl Solution Survivors", "setting": "[13]", "value": "<10"}, {"measurement": "Log Reduction", "setting": "[13]", "value": "≥5.20"}, {"measurement": "contact time after which pass was achieved", "setting": "[14]; [24]", "value": 60, "unit": "min"}, {"measurement": "Test Result (Log reduction)", "setting": "[14]; in 60 min., 20° C. ± 1° C.", "value": ">10^6 in 60 min."}, {"measurement": "delayed dermal contact sensitization", "setting": "[15]", "value": "no evidence of causing a delayed dermal contact sensitization"}, {"measurement": "% Reduction (% Kill)", "setting": "[16]", "value": ">99.999", "unit": "%"}, {"measurement": "HOCl Solution Log10", "setting": "[16]", "value": "≤1"}, {"measurement": "HOCl Solution Survivors", "setting": "[16]", "value": "<10"}, {"measurement": "Log Reduction", "setting": "[16]", "value": "≥5.15"}, {"measurement": "reduction of MS2", "setting": "[17]", "value": 3, "unit": "log10"}, {"measurement": "contact time after which pass was achieved", "setting": "[18]; [24]", "value": 5, "unit": "min"}, {"measurement": "Log Reduction", "setting": "[18]; contact time 15 seconds", "value": 3.15}, {"measurement": "Vashe Log10", "setting": "[18]; contact time 15 seconds", "value": 2.52}, {"measurement": "Vashe Survivors", "setting": "[18]; contact time 15 seconds", "value": 330}, {"measurement": "% Reduction (% Kill)", "setting": "[18]; contact time 15 seconds, listed as HOCl solution", "value": 99.93, "unit": "%"}, {"measurement": "% Reduction (% Kill)", "setting": "[18]; contact time 15 seconds, listed as hypochlorous acid solution", "value": "> 99.9", "unit": "%"}, {"measurement": "% Reduction (% Kill)", "setting": "[18]; contact time 5 minutes", "value": ">99.999", "unit": "%"}, {"measurement": "Log Reduction", "setting": "[18]; contact time 5 minutes", "value": "≥5.69"}, {"measurement": "Vashe Log10", "setting": "[18]; contact time 5 minutes", "value": "≤1"}, {"measurement": "Vashe Survivors", "setting": "[18]; contact time 5 minutes", "value": "<10"}, {"measurement": "dermal irritation", "setting": "[19]", "value": "no dermal irritation"}, {"measurement": "Time to achieve pass", "setting": "[20]", "value": 2, "unit": "min"}, {"measurement": "contact time after which pass was achieved", "setting": "[21]; [24]", "value": 15, "unit": "s"}, {"measurement": "Test Result (Log reduction)", "setting": "[21]; in 5 min., 20° C. ± 1° C.", "value": ">10^4 in 5 min."}, {"measurement": "contact time after which pass was achieved", "setting": "[22]; [24]", "value": 15, "unit": "s"}, {"measurement": "Test Result (Log reduction)", "setting": "[22]; in 5 min., 20° C. ± 1° C.", "value": ">10^4 in 5 min."}, {"measurement": "% Reduction (% Kill)", "setting": "[23]", "value": ">99.995", "unit": "%"}, {"measurement": "HOCl Solution Log10", "setting": "[23]", "value": "≤1"}, {"measurement": "HOCl Solution Survivors", "setting": "[23]", "value": "<10"}, {"measurement": "Log Reduction", "setting": "[23]", "value": "≥4.96"}]}]}
